Test results: patent US5519034A, “Tetraisoquinoline compounds which have useful pharmaceutical utility” (The Boots Company PLC, priority 1991, dated 1996)
Where two headings read alike, the source gives them in different places.

Tests used:
D2 dopamine receptors = biological target: T1, D2 dopamine receptors (Rattus norvegicus, UniProt P61169); assay: D2 dopamine receptor binding: inhibition of tritiated (S)-sulpiride binding, rat striatal samples; parameters: species or system rat (male Charles River CD rats); settings: for Ki: rat striatum, tritiated (S)-sulpiride; for Ki for D2 / Ki for D1: ratio to two significant figures
T1 construct: Striatal samples from the brains of male Charles River CD rats; from tissue; host or cells: striatum of male Charles River CD rats (washed membrane pellet)
Method: (§1) Striatal samples from the brains of male Charles River CD rats weighing between 140-250 g were homogenised in ice-cold 50 mM Tris-HCl buffer (pH 7.4 when measured at 25° C. for D1 binding assays and pH 7.7 when measured at 25° C. for D2 binding assays) and centrifuged for 10 minutes (at 21,000 g when used for D1binding assay and 40,000 g when used for D2binding assays). The pellet was resuspended in the same buffer, again centrifuged and the final pellet stored at -80° C. Before each test the pellet was resuspended in 50 mM Tris-HCl buffer containing 120 mM NaCl, 5 mM KCl, 2 mM CaCl2 and 1 mM MgCl2 at pH 7.4 for the D1 binding assays and at pH 7.7 with the addition of 6 mM ascorbic acid for the D2 binding assays. Aliquots of this suspension were then added to tubes containing the ligand and either the compound under test or buffer. For the D1 binding assays the ligand was tritiated SCH 23390 and the mixture was incubated at 37° C. for 30 minutes before the incubation was terminated by rapid filtration. For the D2 binding assays the ligand was tritiated (S)-sulpiride and the mixture was incubated at 4° C. for 40 minutes before the incubation was terminated by rapid filtration. Non-specific binding was determined experimentally by the addition of saturating concentrations of chloropromazine or spiroperidol for D1 and D2 receptors respectively.
(§2) The filters were washed with ice-cold Tris-HCl buffer and dried. The filters were punched out on to vials containing scintillation fluid and were left for about 20 hours before being counted by scintillation spectrophotometry. Displacement curves were produced over a range of concentrations of the compound under test and the concentration which gave a 50% inhibition of specific binding (IC50) obtained from the curve. The inhibition coefficient Ki was then calculated using the formula [formula] in which [ligand] is the concentration of the tritiated ligand used and KD is the equilibrium dissociation constant for the ligand.
(§3) In some cases Ki values for D2 binding were estimated from single concentration data by the application of the Langmuir adsorption isotherm equation. These cases are indicated by an "E" in the last two columns of Table I. In other cases it was not possible to determine or estimate the Ki and the Ki value is given as greater than (>) that which would result from the application of the above formula to the highest concentration which displaced ≤50% of the ligand.

D1 dopamine receptors = biological target: T2, D1 dopamine receptors (Rattus norvegicus, UniProt P18901); assay: D1 dopamine receptor binding: inhibition of tritiated SCH 23390 binding, rat striatal samples; parameters: species or system rat (male Charles River CD rats); settings: rat striatum, tritiated SCH 23390, pH 7.4, 37° C., 30 minutes
T2 construct: Striatal samples from the brains of male Charles River CD rats; from tissue; host or cells: striatum of male Charles River CD rats (washed membrane pellet)
Method: as §1, §2, §3

[1] = pH 7.7, 4° C., 40 minutes, > = from highest concentration which displaced ≤50% of the ligand, read-out: Ki for D2 binding
[2] = estimated from single concentration data by Langmuir adsorption isotherm equation, read-out: Ki for D2 binding (marked E)

T2 sequence (P18901 whole entry): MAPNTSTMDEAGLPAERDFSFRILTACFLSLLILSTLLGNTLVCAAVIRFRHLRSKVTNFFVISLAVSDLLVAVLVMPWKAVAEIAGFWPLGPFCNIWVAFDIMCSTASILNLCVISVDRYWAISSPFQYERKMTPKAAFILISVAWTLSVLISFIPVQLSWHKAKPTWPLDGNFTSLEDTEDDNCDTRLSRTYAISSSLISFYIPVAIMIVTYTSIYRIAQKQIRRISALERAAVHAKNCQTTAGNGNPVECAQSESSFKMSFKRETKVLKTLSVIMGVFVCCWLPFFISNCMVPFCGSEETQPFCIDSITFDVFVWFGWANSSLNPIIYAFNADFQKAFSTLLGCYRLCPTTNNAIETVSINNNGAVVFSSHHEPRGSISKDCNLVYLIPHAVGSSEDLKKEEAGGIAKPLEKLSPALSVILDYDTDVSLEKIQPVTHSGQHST
T1 sequence (P61169 whole entry): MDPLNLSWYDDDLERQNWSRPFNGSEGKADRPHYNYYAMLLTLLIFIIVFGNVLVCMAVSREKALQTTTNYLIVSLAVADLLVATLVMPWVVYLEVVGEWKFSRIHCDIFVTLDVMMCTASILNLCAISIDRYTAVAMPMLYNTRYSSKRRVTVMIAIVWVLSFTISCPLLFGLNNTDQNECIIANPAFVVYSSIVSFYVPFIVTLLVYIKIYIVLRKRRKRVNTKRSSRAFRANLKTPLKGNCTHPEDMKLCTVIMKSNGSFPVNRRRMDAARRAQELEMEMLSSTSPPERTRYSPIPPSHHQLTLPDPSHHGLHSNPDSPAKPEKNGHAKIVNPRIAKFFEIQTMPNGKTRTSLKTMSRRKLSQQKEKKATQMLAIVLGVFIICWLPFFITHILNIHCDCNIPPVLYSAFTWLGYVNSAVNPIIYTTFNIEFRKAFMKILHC

Row | Ki (D2 dopamine receptors; [1]) [µM] | Ki for D2 / Ki for D1 (D2 dopamine receptors) | Ki (D1 dopamine receptors) [µM] | Ki (D2 dopamine receptors; [2]) [µM] | SMILES
1 | 3.2 | 18 | 0.18 |  | CN1CCc2cc(O)c(O)cc2C1C1(c2ccc(Cl)cc2)CCCCC1 (stereo not shown) [Example 16, 1-[1-(4-chlorophenyl)cyclohexyl]-6,7-dihydroxy-2-methyl-1,2,3,4-tetrahydroisoquinoline]
2 | > 5 | > 36 | 0.14 |  | CN1CCc2c(cc(O)c(O)c2Cl)C1C1(c2ccccc2)CCC1 (stereo not shown) [Example 32, 5-chloro-6,7-dihydroxy-2-methyl-1-(1-phenylcyclobutyl)-1,2,3,4-tetrahydroisoquinoline]
3 | > 5 | > 25 | 0.2 |  | CN1CCc2cc(O)c(O)cc2C1C1(c2ccccc2)CCCC1 (stereo not shown) [Example 15, 6,7-dihydroxy-2-methyl-1-(1-phenylcyclopentyl)-1,2,3,4-tetrahydroisoquinoline]
4 | 4.8 | 2000 | 0.0024 |  | CN1CCc2cc(F)c(O)cc2C1C1(c2ccccc2Cl)CCC1 (single isomer, unassigned; (+)) [Example 64, (+)-1-[1-(2-chlorophenyl)cyclobutyl]-6-fluoro-7-hydroxy-2-methyl-1,2,3,4-tetrahydroisoquinoline]
5 |  |  | 0.021 | 6.6 | CN1CCc2cc(O)c(O)cc2C1C1(c2ccccc2C#N)CCC1 (stereo not shown) [Example 83, 1-[1-(2-cyanophenyl)cyclobutyl]-6,7-dihydroxy-2-methyl-1,2,3,4-tetrahydroisoquinoline]
6 | 51 | 2300 | 0.022 |  | C=CCN1CCc2cc(Cl)c(O)cc2C1C1(c2ccccc2)CCC1 (stereo not shown) [Example 65, 2-allyl-6-chloro-7-hydroxy-1-(1-phenylcyclobutyl)-1,2,3,4-tetrahydroisoquinoline]
7 | > 0.5 | > 60 | 0.0084 |  | COc1cc2c(cc1O)C(C1(c3ccc(Cl)cc3)CCC1)N(C)CC2 (stereo not shown) [Example 49, 1-[1-(4-chlorophenyl)cyclobutyl]-7-hydroxy-6-methoxy-2-methyl-1,2,3,4-tetrahydroisoquinoline]
8 | 5 | 5500 | 0.0009 |  | COc1cc2c(cc1O)C(C1(c3ccccc3OC)CC1)N(C)CC2 (stereo not shown) [Example 73, 7-hydroxy-6-methoxy-1-[1-(2-methoxyphenyl)cyclopropyl]-2-methyl-1,2,3,4-tetrahydroisoquinoline]
9 | > 5 | > 83 | 0.06 |  | COc1cc2c(cc1O)C(C1(c3ccccc3Cl)CC1)N(CCO)CC2 (stereo not shown) [Example 76, 1-[1-(2-chlorophenyl)cyclopropyl]-7-hydroxy-2-(2-hydroxyethyl)-6-methoxy-1,2,3,4-tetrahydroisoquinoline]
10 | 7.6 | 320 | 0.024 |  | CN1CCc2cc(Cl)c(O)cc2C1C1(c2ccc(Cl)cc2)CCC1 (stereo not shown) [Example 53, 6-chloro-1-[1-(4-chlorophenyl)cyclobutyl]-7-hydroxy-2-methyl-1,2,3,4-tetrahydroisoquinoline]
11 |  |  | 0.54 | 11 | CN1CCc2cc(O)c(Cl)cc2C1C1(c2ccccc2)CCC1 (stereo not shown) [Example 31, 7-chloro-6-hydroxy-2-methyl-1-(1-phenylcyclobutyl)-1,2,3,4-tetrahydroisoquinoline]
12 | > 0.5 | > 12 | 0.041 |  | COc1cc2c(cc1O)C(C1(c3ccccc3)CCC1)N(C)CC2 (stereo not shown) [Example 55, 7-hydroxy-6-methoxy-2-methyl-1-(1-phenylcyclobutyl)-1,2,3,4-tetrahydroisoquinoline]
13 | 35 | 1700 | 0.021 |  | COc1cc2c(cc1O)C(C1(c3ccccc3Cl)CC(C)(C)C1)N(C)CC2 (stereo not shown) [Example 70, 7-hydroxy-6-methoxy-2-methyl-1-[1-(2-chlorophenyl)-3,3-dimethylcyclobutyl]-1,2,3,4-tetrahydroisoquinoline]
14 | 360 | 490 | 0.74 |  | CN1CCc2cc(Cl)c(O)c(Cl)c2C1C1(c2ccccc2)CCC1 (stereo not shown) [Example 58, 6,8-dichloro-7-hydroxy-2-methyl-1-(1-phenylcyclobutyl)-1,2,3,4-tetrahydroisoquinoline]
15 | 5400 | 280000 | 0.019 |  | CN1CCc2cc(F)c(O)cc2C1C1(c2ccccc2)CCC1 (stereo not shown) [Example 25, 6-fluoro-7-hydroxy-2-methyl-1-(1-phenylcyclobutyl)-1,2,3,4-tetrahydroisoquinoline]
16 | 6100 | 280000 | 0.022 |  | CN1CCc2cc(O)c(O)cc2C1C1(c2ccc(F)cc2)CCC1 (stereo not shown) [Example 3, 1-[1-(4-fluorophenyl)cyclobutyl]-6,7-dihydroxy-2-methyl-1,2,3,4-tetrahydroisoquinoline]
17 | > 5 | > 160 | 0.031 |  | CN1CCc2cc(Br)c(O)cc2C1C1(c2ccccc2)CCC1 (stereo not shown) [Example 20, 6-bromo-7-hydroxy-2-methyl-1-(1-phenylcyclobutyl)-1,2,3,4-tetrahydrosoqunoline]
18 | > 5 | > 76 | 0.066 |  | CN1CCc2cc(Cl)c(O)cc2C1C1(c2ccccc2)CC(C)(C)C1 (stereo not shown) [Example 30, 6-chloro-7-hydroxy-2-methyl-1-(3,3-dimethyl-1-phenylcyclobutyl)-1,2,3,4-tetrahydroisoquinoline]
19 | 3 | 94 | 0.032 |  | COc1ccc(C2(C3c4cc(O)c(O)cc4CCN3C)CCC2)cc1 (stereo not shown) [Example 54]
20 | 2.5 | 15 | 0.17 |  | CN1CCc2cc(O)c(O)cc2C1C1(c2ccc3ccccc3c2)CCC1 (stereo not shown) [Example 42, 6,7-dihydroxy-2-methyl-1-[1-(2-naphthyl)cyclobutyl]-1,2,3,4-tetrahydroisoquinoline]
21 | 41 | 14000 | 0.003 |  | CN1CCc2cc(F)c(O)cc2C1C1(c2ccc(Br)cc2)CCC1 (stereo not shown) [Example 6, 1-[1-(4-bromophenyl)cyclobutyl]-6-fluoro-7-hydroxy-2-methyl-1,2,3,4-tetrahydroisoquinoline]
22 | 0.9 | 3200 | 0.00028 |  | COc1cc2c(cc1O)C(C1(c3ccccc3Cl)CC1)N(C)CC2 (single isomer, unassigned; (+)) [Example 85, (+)-1-[1-(2-chlorophenyl)cyclopropyl]-7-hydroxy-6-methoxy-2-methyl-1,2,3,4-tetrahydroisoquinoline]
23 | 2.9 | 140 | 0.021 |  | CN1CCc2cc(O)c(O)cc2C1C1(c2ccccc2F)CCC1 (stereo not shown) [Example 7, 1-[1-(2-fluorophenyl)cyclobutyl]-6,7-dihydroxy-2-methyl-1,2,3,4-tetrahydroisoquinoline]
24 | 5.3 | 8800 | 0.0006 |  | COc1cc2c(cc1O)C(C1(c3ccc(Cl)cc3Cl)CCC1)N(C)CC2 (stereo not shown) [Example 37, 1-[1-(2,4-dichlorophenyl)cyclobutyl]-7-hydroxy-6-methoxy-2-methyl-1,2,3,4-tetrahydroisoquinoline]
25 | > 0.5 | > 21 | 0.024 |  | CN1CCc2cc(O)c(O)cc2C1C1(c2ccccc2)CCC1 (stereo not shown) [Example 45, 6,7-dihydroxy-2-methyl-1-(1-phenylcyclobutyl)-1,2,3,4-tetrahydroisoquinoline]
26 | 0.45 | 2500 | 0.00018 |  | CN1CCc2cc(F)c(O)cc2C1C1(c2ccccc2Cl)CC1 (stereo not shown) [Example 61, 1-[1-(2-chlorophenyl)cyclopropyl]-6-fluoro-7-hydroxy-2-methyl-1,2,3,4-tetrahydroisoquinoline]
27 | 3.6 | 330 | 0.011 |  | CN1CCc2cc(Cl)c(O)cc2C1C1(c2ccccc2)CCC1 (stereo not shown) [Example 28, 6-chloro-7-hydroxy-2-methyl-1-(1-phenylcyclobutyl)-1,2,3,4-tetrahydroisoquinoline]
28 | 8.9 | 2300 | 0.0039 |  | CN1CCc2cc(O)c(O)cc2C1C1(c2ccc(Br)cc2)CCC1 (stereo not shown) [Example 17, 1-[1-(4-bromophenyl)cyclobutyl]-6,7-dihydroxy-2-methyl-1,2,3,4-tetrahydroisoquinoline]
